Test results as given in patent US9890153B2, “Substituted 1H-pyrrolo [2, 3-b] pyridine and 1H-pyrazolo [3, 4-b] pyridine derivatives as salt inducible kinase 2 (SIK2) inhibitors” (Arrien Pharmaceuticals LLC, priority 2012, dated 2018).
“Also recorded” adds a separate entry of the source. Where two headings read alike, the source gives them in different places. Values belong to the compound of their own block, whether it stands above or below them.

Columns and labels:
SKOv3 cells = assay: SKOv3 i.p. xenograft in nu/nu mice; format: in vivo; conditions: derivatives 30, 60 mg/kg, taxol 10 mg/kg, FIG. 5a-c
Experimental: We examined the growth-inhibitory effect of 1H-Pyrrolo[2,3-b]pyridine derivatives in-vivo employing an i.p. xenograft model in which nu/nu mice were inoculated i.p. with sensitive cell line SKOv3 cells. One week after inoculation, mice were randomized into six treatment groups receiving vehicle, 1H-Pyrrolo[2,3-b]pyridine derivatives 30, 60 mg/kg, taxol 10 mg/kg and 1H-Pyrrolo[2,3-b]pyridine plus taxol. Drug treatment was well tolerated except i.p. treatment second group, with no apparent toxicity throughout the study. At the end of an experiment, all mice were sacrificed for tumor volume, weight and each mouse examined and recorded at autopsy.

SKOV3ip1 tumor cells = assay: SKOv3 induced orthotopic murine model; format: in vivo, athymic female mice; conditions: 20-100 mg/kg i.p. or p.o.
Experimental: Dose-finding experiments initiated by injecting SKOV3ip1 (SKOV3ip1 cells were collected from cultures using either 0.25% trypsin-EDTA (Life Technologies) on the cell line) tumor cells i.p. (2.5×10^5) into athymic female mice. 19 days after tumor cell orthotopic inoculation and when i.p. tumors were palpable, then the mice randomized into 6 dosage groups: 0 mg (vehicle alone, group 1), 20 and 40 mg/kg (groups 2, 3) received 1H-Pyrrolo[2,3-b]pyridine compound i.p QD for 3 days (M/W/F), 60 and 80 mg/kg (groups 4, 5) received 1H-Pyrrolo[2,3-b]pyridine compound p.o BID for 3 days (M/W/F) and 100 mg/kg group received 1H-Pyrrolo[2,3-b]pyridine compound+Taxol p.o BID for 3 days (M/W/F). […] Additionally, we performed quantitative RT-PCR, Western blot, and immunocytology experiments to identify overexpression of SIK2 in control groups against treatment groups along with SIK2 inhibition of transcription factor CREB via phosphorylation of its cofactor TORC2/CRTC2 as a biological indicator of SIK2 kinase activity. Further characterized the effects of SIK2 kinase inhibition on tumor growth inhibition, examined the tumor nodule formation.

[1] = molecular target: SIK2 (QIK) (SEQ ID NO: 11) (Homo sapiens, UniProt Q9H0K1); assay: SIK2 kinase assay (radiometric, 10 μM ATP); format: biochemical; conditions: read-out: SIK2 (QIK) (SEQ ID NO: 11) kinase inhibition result
Chain of SIK2 (QIK) (SEQ ID NO: 11) (Q9H0K1 whole entry): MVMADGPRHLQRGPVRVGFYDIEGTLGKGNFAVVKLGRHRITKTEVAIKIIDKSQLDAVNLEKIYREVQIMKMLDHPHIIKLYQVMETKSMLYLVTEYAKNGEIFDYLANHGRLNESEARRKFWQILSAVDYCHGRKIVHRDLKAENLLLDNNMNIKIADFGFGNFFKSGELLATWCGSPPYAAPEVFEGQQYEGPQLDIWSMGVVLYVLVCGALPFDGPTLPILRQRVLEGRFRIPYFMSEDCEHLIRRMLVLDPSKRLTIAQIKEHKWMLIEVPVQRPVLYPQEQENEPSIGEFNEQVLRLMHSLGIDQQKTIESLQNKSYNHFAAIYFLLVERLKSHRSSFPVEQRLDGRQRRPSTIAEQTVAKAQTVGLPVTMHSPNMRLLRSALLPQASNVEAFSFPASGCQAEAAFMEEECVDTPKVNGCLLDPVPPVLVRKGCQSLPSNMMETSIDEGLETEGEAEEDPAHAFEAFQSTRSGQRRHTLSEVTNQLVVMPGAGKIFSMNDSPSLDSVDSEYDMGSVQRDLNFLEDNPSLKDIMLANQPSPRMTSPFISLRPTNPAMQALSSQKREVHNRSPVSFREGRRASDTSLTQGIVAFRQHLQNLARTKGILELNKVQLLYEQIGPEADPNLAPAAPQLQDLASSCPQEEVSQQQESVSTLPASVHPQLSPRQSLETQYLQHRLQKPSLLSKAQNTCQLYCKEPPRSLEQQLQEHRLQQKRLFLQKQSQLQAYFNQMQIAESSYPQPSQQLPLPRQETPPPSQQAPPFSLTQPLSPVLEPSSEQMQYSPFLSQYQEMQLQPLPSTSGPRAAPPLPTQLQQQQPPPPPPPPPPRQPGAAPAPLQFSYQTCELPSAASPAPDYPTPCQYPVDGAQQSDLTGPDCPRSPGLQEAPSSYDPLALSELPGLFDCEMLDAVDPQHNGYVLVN
Summary of the method: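 Radiometric filter-binding format: enzyme and substrate peptide incubated with or without compound and ATP mix for 20 min at 30 °C. Reaction stopped with phosphoric acid, captured on filter mats and washed with 0.8% phosphoric acid before counting.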

SIK1 (SEQ ID NO: 10) = molecular target: T1, SIK1 (SEQ ID NO: 10) (Homo sapiens, UniProt P57059); assay: Protein kinase assay, SIK1; format: biochemical; conditions: read-out: SIK1 (SEQ ID NO: 10) kinase inhibition result
T1 construct: Reaction Biology Corporation (assay service, HotSpot panel)
T1 sequence (P57059 whole entry): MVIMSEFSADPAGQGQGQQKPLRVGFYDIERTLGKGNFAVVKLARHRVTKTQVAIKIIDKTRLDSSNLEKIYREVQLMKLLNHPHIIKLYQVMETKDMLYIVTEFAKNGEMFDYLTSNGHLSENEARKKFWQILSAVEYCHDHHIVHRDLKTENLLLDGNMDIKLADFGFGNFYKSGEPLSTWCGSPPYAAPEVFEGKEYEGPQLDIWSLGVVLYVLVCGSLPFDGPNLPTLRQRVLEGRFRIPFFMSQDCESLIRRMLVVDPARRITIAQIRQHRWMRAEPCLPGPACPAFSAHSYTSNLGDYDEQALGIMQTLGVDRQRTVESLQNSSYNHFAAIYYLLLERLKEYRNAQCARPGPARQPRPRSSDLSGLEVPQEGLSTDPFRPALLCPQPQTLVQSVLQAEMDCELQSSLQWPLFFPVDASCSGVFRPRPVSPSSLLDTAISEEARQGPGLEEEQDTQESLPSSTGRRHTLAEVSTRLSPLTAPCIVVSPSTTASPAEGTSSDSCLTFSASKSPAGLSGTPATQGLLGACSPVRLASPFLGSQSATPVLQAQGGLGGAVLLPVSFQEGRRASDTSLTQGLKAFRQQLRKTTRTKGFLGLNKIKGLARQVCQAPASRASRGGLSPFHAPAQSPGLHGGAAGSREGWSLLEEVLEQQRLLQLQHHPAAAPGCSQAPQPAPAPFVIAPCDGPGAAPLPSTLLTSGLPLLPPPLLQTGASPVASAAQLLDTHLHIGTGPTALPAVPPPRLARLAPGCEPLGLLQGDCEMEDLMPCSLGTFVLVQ
Summary of the method: (§1)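 Radiometric assay in HEPES pH 7.5 with MgCl2, EGTA, Brij35, BSA, Na3VO4, DTT and 1% DMSO; compound added ~20 min before ATP plus 33P-ATP (10 μM final). IC50 from curve fits.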

[2] = molecular target: T2, SIK3 (QSK) (SEQ ID NO: 24) (Homo sapiens, UniProt Q9Y2K2); assay: Protein kinase assay, SIK3; format: biochemical; conditions: read-out: SIK3 (QSK) (SEQ ID NO: 24) kinase inhibition result
T2 construct: Reaction Biology Corporation (assay service, HotSpot panel)
T2 sequence (Q9Y2K2 whole entry): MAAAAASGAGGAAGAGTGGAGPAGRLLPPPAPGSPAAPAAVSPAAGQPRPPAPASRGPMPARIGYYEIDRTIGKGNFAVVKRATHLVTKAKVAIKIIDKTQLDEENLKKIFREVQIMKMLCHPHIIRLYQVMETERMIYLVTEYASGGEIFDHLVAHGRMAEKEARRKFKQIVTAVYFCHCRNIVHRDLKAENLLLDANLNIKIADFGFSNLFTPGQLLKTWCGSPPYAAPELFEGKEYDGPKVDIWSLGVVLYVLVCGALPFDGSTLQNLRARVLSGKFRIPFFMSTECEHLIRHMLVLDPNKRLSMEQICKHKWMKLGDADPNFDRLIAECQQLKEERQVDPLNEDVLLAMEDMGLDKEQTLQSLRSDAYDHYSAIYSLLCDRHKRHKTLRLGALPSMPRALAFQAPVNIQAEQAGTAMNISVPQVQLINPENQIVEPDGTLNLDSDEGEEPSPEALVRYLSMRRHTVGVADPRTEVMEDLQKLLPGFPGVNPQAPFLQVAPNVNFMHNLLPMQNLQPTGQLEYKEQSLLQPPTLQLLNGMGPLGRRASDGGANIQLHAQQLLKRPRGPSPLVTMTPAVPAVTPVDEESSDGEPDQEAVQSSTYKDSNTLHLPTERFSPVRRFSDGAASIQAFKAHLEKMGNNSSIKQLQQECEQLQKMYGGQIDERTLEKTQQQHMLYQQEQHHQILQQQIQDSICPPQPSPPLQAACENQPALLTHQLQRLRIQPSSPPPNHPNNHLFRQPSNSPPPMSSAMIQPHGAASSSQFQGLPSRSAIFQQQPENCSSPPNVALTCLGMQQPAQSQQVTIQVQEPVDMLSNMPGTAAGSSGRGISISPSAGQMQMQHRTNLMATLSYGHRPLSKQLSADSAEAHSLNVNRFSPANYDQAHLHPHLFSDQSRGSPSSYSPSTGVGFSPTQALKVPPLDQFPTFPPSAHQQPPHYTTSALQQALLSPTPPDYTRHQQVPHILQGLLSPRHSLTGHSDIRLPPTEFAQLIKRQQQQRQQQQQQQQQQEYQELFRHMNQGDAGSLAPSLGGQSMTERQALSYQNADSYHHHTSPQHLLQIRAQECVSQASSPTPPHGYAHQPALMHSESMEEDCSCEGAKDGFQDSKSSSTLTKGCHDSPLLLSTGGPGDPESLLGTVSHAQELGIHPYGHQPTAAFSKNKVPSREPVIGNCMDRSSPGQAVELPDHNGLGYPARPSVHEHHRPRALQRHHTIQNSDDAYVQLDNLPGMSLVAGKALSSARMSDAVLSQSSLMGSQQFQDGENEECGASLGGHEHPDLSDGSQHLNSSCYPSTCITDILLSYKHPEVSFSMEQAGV
Summary of the method: as §1

[3] = Rat bioavailability and pharmacokinetics; format: in vivo, male Sprague Dawley rats
Experimental: The objective of this study was to investigate the bio-availability and pharmacokinetics of a 1H-Pyrrolo[2,3-b]pyridine compound in male Sprague Dawley rats. A total of 6 male rats were used in the study.
Dose formulations were prepared on the day of doing. Blood samples were collected at 0.083 (only IV), 0.25, 0.5, 1, 2, 4, 8 and 24 h post-dose. At each time point, approximately 0.2 mL of blood was withdrawn from each cannulated rat through jugular vein and transferred to a pre-labeled microfuge tube containing 20 μL of 200 mM K2EDTA permL of blood. Following collection of blood sample, equal volume of heparinized saline was flushed into jugular vein of rat. The blood samples were centrifuged at 5000 g for 5 minutes at 4±2° C. The plasma was separated within 30 min of scheduled time and stored below −60° C. until bio-analysis. The plasma samples were analyzed for 114 using a fit-for purpose liquid chromatographic tandem mass spectrometric detection (LC-MS/MS) method with a lower limit of quantification of 2.21 ng/mL. The pharmacokinetic parameters for compound 114 were calculated using the non-compartmental analysis tool of validated WinNonlin® software (Version 5.2).

[4] = male, Sprague Dawley, plasma, IV 5 mg/kg, rat
[5] = male, Sprague Dawley, plasma, PO 20 mg/kg, rat

IC50 [1]: > 100 nM
IC50 (SIK1 (SEQ ID NO: 10)): > 1000 nM
IC50 [2]: > 100 nM
Structure (SMILES): CCS(=O)(=O)N1CCC(n2cc(-c3cnc4[nH]cc(-c5cc(F)cc(F)c5OC)c4c3)cn2)CC1 [Example 215, 3-(3,5-difluoro-2-methoxyphenyl)-5-(1-(1-(ethylsulfonyl)piperidin-4-yl)-1H-pyrazol-4-yl)-1H-pyrrolo[2,3-b]pyridine]

IC50 [1]: < 100 nM
IC50 (SIK1 (SEQ ID NO: 10)): > 1000 nM
IC50 [2]: > 100 nM
Structure (SMILES): COc1c(F)cc(F)cc1-c1c[nH]c2ncc(-c3cnc(N4CCOCC4)s3)cc12 [Example 179, 4-(5-(3-(3,5-difluoro-2-methoxyphenyl)-1H-pyrrolo[2,3-b]pyridin-5-yl)thiazol-2-yl)morpholine]

IC50 [1]: > 100 nM
IC50 (SIK1 (SEQ ID NO: 10)): > 1000 nM
IC50 [2]: > 100 nM
Structure (SMILES): CCCS(=O)(=O)N1CCC(n2cc(-c3cnc4[nH]cc(-c5cc(F)cc(F)c5OC)c4c3)cn2)CC1 [Example 216, 3-(3,5-difluoro-2-methoxyphenyl)-5-(1-(1-(propylsulfonyl)piperidin-4-yl)-1H-pyrazol-4-yl)-1H-pyrrolo[2,3-b]pyridine]

IC50 [1]: < 100 nM
IC50 (SIK1 (SEQ ID NO: 10)): > 100 nM
IC50 [2]: < 100 nM
Structure (SMILES): COc1c(F)cc(F)cc1-c1c[nH]c2ncc(-n3cc(N4CCN(CCO)CC4)cn3)cc12 [Example 218, 2-(4-(1-(3-(3,5-difluoro-2-methoxyphenyl)-1H-pyrrolo[2,3-b]pyridin-5-yl)-1H-pyrazol-4-yl)piperazin-1-yl)ethanol]

IC50 [1]: < 100 nM
IC50 (SIK1 (SEQ ID NO: 10)): > 100 nM
IC50 [2]: < 100 nM
Structure (SMILES): COc1c(F)cc(F)cc1-c1c[nH]c2ncc(-c3cnn(C4CCN(CCO)CC4)c3)cc12 [Example 226, 2-(4-(4-(3-(3,5-difluoro-2-methoxyphenyl)-1H-pyrrolo[2,3-b]pyridin-5-yl)-1H-pyrazol-1-yl)piperidin-1-yl)ethanol]

IC50 [1]: < 100 nM
IC50 (SIK1 (SEQ ID NO: 10)): > 100 nM
IC50 [2]: < 100 nM
Structure (SMILES): COc1c(F)cc(F)cc1-c1c[nH]c2ncc(-c3cnn(S(=O)(=O)N4CCN(C)CC4)c3)cc12 [Example 211, 3-(3,5-difluoro-2-methoxyphenyl)-5-(1-((4-methylpiperazin-1-yl)sulfonyl)-1H-pyrazol-4-yl)-1H-pyrrolo[2,3-b]pyridine]

More lines, now with the values behind:

Structure (SMILES): CC(=O)O[C@H]1C(=O)[C@@]2(C)[C@H]([C@H](OC(=O)c3ccccc3)[C@]3(O)C[C@H](OC(=O)[C@H](O)[C@@H](NC(=O)c4ccccc4)c4ccccc4)C(C)=C1C3(C)C)[C@]1(OC(C)=O)CO[C@@H]1C[C@@H]2O [taxol]
antitumor effect (tumor volume, weight, number) (SKOv3 cells): significant antitumor effects; also recorded: inhibited the abdominal tumor growth and tumor cell dissemination
antitumor effect (SKOV3ip1 tumor cells): significant antitumor effects

Structure (SMILES): Fc1cccc(-c2c[nH]c3ncc(-c4ccsc4)cc23)c1Cl [Example 114, 3-(2-chloro-3-fluorophenyl)-5-(thiophen-3-yl)-1H-pyrrolo[2,3-b]pyridine]
IC50 [1]: < 100 nM
IC50 (SIK1 (SEQ ID NO: 10)): > 100 nM
IC50 [2]: > 1000 nM
F ([3]; PO 20 mg/kg vs IV 5 mg/kg, from AUCinf and nominal doses): 15%
AUC(0-inf) [3, 4]: 2620 ± 647 ng·h/mL
AUC(0-t) [3, 4]: 2600 ± 637 ng·h/mL
clearance [3, 4]: 33.4 ± 9.57 mL/min/kg
half-life [3, 4]: 32.4 ± 3 min
Cmax ([3]; male, Sprague Dawley, plasma, IV 5 mg/kg, rat, read-out: Cmax (concentration at time zero)): 3850 ng/mL
Vd ([3]; male, Sprague Dawley, plasma, IV 5 mg/kg, rat, read-out: Vss): 1.61 ± 0.28 L/kg
AUC(0-inf) [3, 5]: 1600 ± 183 ng·h/mL
AUC(0-t) [3, 5]: 1580 ± 179 ng·h/mL
Cmax ([3]; male, Sprague Dawley, plasma, PO 20 mg/kg, rat, read-out: Cmax): 853 ng/mL
Tmax ([3]; male, Sprague Dawley, plasma, PO 20 mg/kg, rat, read-out: Tmax (median)): 15 min

Structure (SMILES): CN1CCC(n2cc(-c3cnc4[nH]cc(-c5ccc6c(c5)OC(F)(F)O6)c4c3)cn2)CC1 [Example 220, 3-(2,2-difluorobenzo[d][1,3]dioxol-5-yl)-5-(1-(1-methylpiperidin-4-yl)-1H-pyrazol-4-yl)-1H-pyrrolo[2,3-b]pyridine]
IC50 [1]: > 100 nM
IC50 (SIK1 (SEQ ID NO: 10)): > 1000 nM
IC50 [2]: > 1000 nM

Structure (SMILES): Cc1ccc(-c2cnc3[nH]cc(-c4cccc(F)c4O)c3c2)o1 [Example 128, 2-fluoro-6-(5-(5-methylfuran-2-yl)-1H-pyrrolo[2,3-b]pyridin-3-yl)phenol]
IC50 [1]: < 100 nM
IC50 (SIK1 (SEQ ID NO: 10)): > 100 nM
IC50 [2]: > 100 nM

Structure (SMILES): O=S(=O)(c1ccc(-c2c[nH]c3nccc(-c4ccsc4)c23)cc1)N1CCC1 [Example 96, 3-(4-(azetidin-1-ylsulfonyl)phenyl)-4-(thiophen-3-yl)-1H-pyrrolo[2,3-b]pyridine]
IC50 [1]: > 1000 nM
IC50 (SIK1 (SEQ ID NO: 10)): > 1000 nM
IC50 [2]: > 1000 nM

Structure (SMILES): CCCS(=O)(=O)N1CCC(n2cc(-c3cnc4[nH]cc(-c5ccc6c(c5)OC(F)(F)O6)c4c3)cn2)CC1 [Example 223, 3-(2,2-difluorobenzo[d][1,3]dioxol-5-yl)-5-(1-(1-(propylsulfonyl)piperidin-4-yl)-1H-pyrazol-4-yl)-1H-pyrrolo[2,3-b]pyridine]
IC50 [1]: > 1000 nM
IC50 (SIK1 (SEQ ID NO: 10)): > 1000 nM
IC50 [2]: > 1000 nM

Structure (SMILES): COc1c(F)cccc1-c1c[nH]c2ncc(-c3ccc(CN4CCOCC4)s3)cc12 [Example 142, 4-((5-(3-(3-fluoro-2-methoxyphenyl)-1H-pyrrolo[2,3-b]pyridin-5-yl)thiophen-2-yl)methyl)morpholine]
IC50 [1]: < 100 nM
IC50 (SIK1 (SEQ ID NO: 10)): > 1000 nM
IC50 [2]: < 100 nM

Structure (SMILES): CCOc1ccccc1-c1n[nH]c2nccc(-c3ccsc3)c12 [Example 5, 3-(2-ethoxyphenyl)-4-(thiophen-3-yl)-1H-pyrazolo[3,4-b]pyridine]
IC50 [1]: > 100 nM
IC50 (SIK1 (SEQ ID NO: 10)): > 1000 nM
IC50 [2]: < 100 nM

Structure (SMILES): COc1c(F)cccc1-c1c[nH]c2ncc(-c3ccc(C)o3)cc12 [Example 168, 3-(3-fluoro-2-methoxyphenyl)-5-(5-methylfuran-2-yl)-1H-pyrrolo[2,3-b]pyridine]
IC50 [1]: < 100 nM
IC50 (SIK1 (SEQ ID NO: 10)): > 1000 nM
IC50 [2]: > 1000 nM

Structure (SMILES): COc1c(F)cccc1-c1c[nH]c2ncc(-c3cccc(S(=O)(=O)N(C)C)c3)cc12 [Example 184, 3-(3-(3-fluoro-2-methoxyphenyl)-1H-pyrrolo[2,3-b]pyridin-5-yl)-N,N-dimethylbenzenesulfonamide]
IC50 [1]: < 100 nM
IC50 (SIK1 (SEQ ID NO: 10)): > 1000 nM
IC50 [2]: > 100 nM

Structure (SMILES): COc1c(F)cccc1-c1c[nH]c2ncc(-c3ccc(CN4CCCCC4)s3)cc12 [Example 175, 3-(3-fluoro-2-methoxyphenyl)-5-(5-(piperidin-1-ylmethyl)thiophen-2-yl)-1H-pyrrolo[2,3-b]pyridine]
IC50 [1]: < 100 nM
IC50 (SIK1 (SEQ ID NO: 10)): > 1000 nM
IC50 [2]: > 100 nM

Structure (SMILES): Oc1ccccc1-c1c[nH]c2ncc(-c3ccc(CN4CCOCC4)s3)cc12 [Example 192, 2-(5-(5-(morpholinomethyl)thiophen-2-yl)-1H-pyrrolo[2,3-b]pyridin-3-yl)phenol]
IC50 [1]: < 100 nM
IC50 (SIK1 (SEQ ID NO: 10)): > 100 nM
IC50 [2]: > 100 nM
